In general, Ki refers to the equilibrium dissociation constant of an inhibitor or competing ligand from its target.

The values that follow come from patent US6342503B1, “1N-alkyl-n-arylpyrimidinamines and derivatives thereof” (DuPont Pharmaceuticals Company, priority 1993, dated 2002).

The first assay has as its target T1, CRF receptor (Rattus norvegicus, UniProt P35353).
T1 construct: 100 μl of membrane suspension as prepared above to give a total reaction volume of 300 μl; from tissue; host or cells: rat cerebral cortex membrane homogenate
T1 sequence (P35353 24-415): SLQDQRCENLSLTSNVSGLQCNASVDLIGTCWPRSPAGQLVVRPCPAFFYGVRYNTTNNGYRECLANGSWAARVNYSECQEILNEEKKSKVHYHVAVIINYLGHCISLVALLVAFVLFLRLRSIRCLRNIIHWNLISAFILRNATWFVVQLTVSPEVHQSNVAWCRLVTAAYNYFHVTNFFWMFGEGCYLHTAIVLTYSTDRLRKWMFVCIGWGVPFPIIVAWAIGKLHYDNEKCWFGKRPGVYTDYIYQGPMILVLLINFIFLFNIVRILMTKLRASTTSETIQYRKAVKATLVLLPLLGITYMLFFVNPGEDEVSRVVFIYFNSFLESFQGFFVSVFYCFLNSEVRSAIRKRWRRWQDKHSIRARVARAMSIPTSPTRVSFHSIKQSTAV
As to the kind of experiment: In vitro CRF receptor binding assay (competition with [125I] ovine CRF, rat cortex membranes). The note with it: competition with [125I] ovine CRF, 2 h at 22° C.; Ki classes; read-out: Inhibition Ki. The protocol: In vitro Receptor Binding Assay
Tissue Preparation: Male Sprague Dawley rats (180-200 g) were sacrificed by decapitation and the cortex was dissected on ice, frozen whole in liquid nitrogen and stored at −70° C. until use. On the day of assay, frozen tissue was weighed and homogenized in 20 volumes of ice cold buffer containing 50 mM Tris, 10 mM MgCl2, 2 mM EGTA, pH 7.0 at 22° C. using a Polytron (Brinkmann Instruments, Westbury, N.Y.; setting 6) for 20 s. The homogenate was centrifuged at 48,000× g for 10 min at 4° C. The supernatant was discarded, and the pellet was re-homogenized in the same volume of buffer and centrifuged at 48,000× g for 10 min at 4° C. The resulting pellet was resuspended in the above buffer to a final concentration of 20-40 mg original wet weight/mL and used in the assays described below.
CRF Receptor Binding: Receptor binding assays were carried out essentially as described by E. B. De Souza, J. Neurosci. […]
All assays were carried out at equilibrium for 2 h at 22° C. as described by E. B. De Souza, J. Neurosci. […] The reaction was terminated by centrifugation of the tubes in a Beckman microfuge for 5 min at 12,000× g. Aliquots of the supernatant were collected to determine the “free” radioligand concentration. The remaining supernatant was aspirated and the pellets washed gently with ice-cold PBS plus 0.01% Triton X-100; centrifuged again and monitored for bound radioactivity as described above. […] This program has the distinct advantage of fitting the raw experimental data on an untransformed coordinate system where errors are most likely to be normally distributed and uncorrelated with the independent variable. […] The parameters for the affinity constants (KD) and receptor densities (Bmax) are also provided along with statistics on the general “fit” of the estimated parameters to the raw data.
Competition Curve Analysis
The resulting pellets were surface washed twice by centrifugation with 1 mL of ice-cold phosphate buffered saline and 0.01% Triton X-100; the supernatants discarded and the pellets monitored for radioactivity at approximately 80% efficiency. The level of non-specific binding was defined in the presence of […] unlabeled rat/humanCRF (r/hCRF). Data from competition curves were analyzed by the program LIGAND. […] Routinely, the data were analyzed using a one- and two-site model comparing the “goodness of fit” between the models in order to accurately determine the Ki. Statistical analyses provided by LIGAND allowed the determination of whether a single-site or multiple-site model should be used.
In Table 17; the Ki values were determined using the assay conditions described above.
As to `CCN(c1nc(C)cc(CN2CCOCC2)n1)c1ccc(C(C)C)cc1Br` [compound 59, N-(2-bromo-4-(1-methylethyl)phenyl)-N-ethyl-6-methyl-4-(4-morpholinylmethyl)-2-pyrmidinamine], the Ki was less than 500 nM.

Turning to `CCN(c1nc(C)cc(C)n1)c1ccc(C(C)=NOC)cc1SC` [compound 178, N-(2-methylthio-4-methoxyiminoethylphenyl)-N-ethyl-4,6-dimethyl-2-pyrimidinamine], the Ki was less than 500 nM.

Consider `CCN(c1nc(C)cc(C(=O)OC)n1)c1ccc(C(C)C)cc1Br` [compound 61, Methyl 2-((2-bromo-4-(1-methylethyl)phenyl)ethylamino)-6-methyl-4-pyrimidinecarboxylate], for which the Ki is less than 500 nM.

For `CCN(c1nc(C)cc(C)n1)c1ccc(C(C)C)cc1OC` [compound 65, N-ethyl-N-(2-methoxy4-(1-methylethyl)phenyl)4,6-dimethyl-2-pyimidinamine], the inhibition constant (Ki) is 2000 to 10000 nM.

The same assay, now with this note: read-out: Inhibition Ki.
As to `CCN(c1nc(C)cc(C(C)(C)O)n1)c1ccc(C(C)C)cc1Br` [compound 295], the Ki was less than 500 nM.

Take `CCN(c1nc(C)cc(C(O)c2ccc(OC)cc2)n1)c1ccc(C(C)C)cc1Br` (centres unmarked) [compound 292]: the Ki is less than 500 nM.

For the molecule `CCN(c1nc(C)nc(N2CCOCC2)n1)c1ccc(C(C)C)cc1I` [compound 136], the Ki was less than 500 nM.

Regarding `Cc1cc(C)nc(N(C)c2ccccc2C(F)(F)F)n1` [compound 54], the Ki lay in the range of 2000 to 10000 nM.

For `Cc1cc(C)c2ccn(-c3ccc(C(C)C)cc3Br)c2n1` [Example 257], the Ki was less than 500 nM.

With `Cc1cc(Cl)c2ccn(-c3ccc(C(C)C)cc3Br)c2n1` [Example 259], the Ki is less than 500 nM.

On to `CCN(c1nc(C)cc(OC[C@@H]2CCCN2C)n1)c1ccc(C(C)C)cc1SC` [compound 177, N-(2-methylthio4-(1-methylethyl)phenyl)-N-ethyl-4(S)-(N-methyl-2′-pyrrolidinomethoxy)-6-methyl-2-pyrimidinamine], for which the Ki was 501 to 2000 nM.

Regarding `CCOc1ccc(N(CC)c2nc(C)cc(C)n2)c(Br)c1` [compound 201], the Ki was less than 500 nM.

Regarding `CCN(c1nc(C)cc([S+](C)[O-])n1)c1ccc(C(C)C)cc1Br` (centres unmarked) [compound 160, N-(2-bromo-4-(1-methylethyl)phenyl)-N-ethyl-4-methyl-6-(thiomethyl)-2-pyrimidinamine, S-oxide], the Ki was less than 500 nM.

Consider `CCN(c1nc(C)cc(COCc2ccncc2)n1)c1ccc(C(C)C)cc1Br` [compound 219], for which the Ki is less than 500 nM.

For the molecule `CCN(c1nc(C)cc(C)n1)c1ccc(C(C)C)cc1Br` [compound 21, N-(2-bromo-4-(1-methylethyl)phenyl)-N-ethyl-4,6dimethyl-2-pyrimidinamine], the Ki was less than 500 nM.

For `CCN(c1nc(C)cc(COCc2ccco2)n1)c1ccc(C(C)C)cc1Br` [compound 221], the Ki is less than 500 nM.

For the molecule `CCN(c1nc(C)nc(Cl)n1)c1ccc(C(C)C)cc1Br` [compound 250], the Ki lay in the range of 501 to 2000 nM.

For `CCN(c1nc(C)cc(COCC(=O)N2CCOCC2)n1)c1ccc(C(C)C)cc1Br` [compound 229], the Ki lay in the range of 2000 to 10000 nM.

Regarding `CCN(c1nc(C)cc(COc2ccccn2)n1)c1ccc(C(C)C)cc1Br` [compound 210], the Ki is 501 to 2000 nM.

For `CCN(c1nc(C)cc(COCCN2CCOCC2)n1)c1ccc(C(C)C)cc1Br` [compound 231], the Ki lay within 2000 to 10000 nM.

As to `CCN(c1nc(C)cc(N2CCSC2)n1)c1ccc(C(C)C)cc1I` [compound 171, N-(2-iodo-4-(1-methylethyl)phenyl)-N-ethyl-4-thiazolidino-6-methyl-2-pyrimidinamine], the Ki was less than 500 nM.

As for `CCN(c1nc(C)cc(C)n1)c1ccc(OC(C)C)cc1Br` [compound 57, N-(2-Bromo-4-(isopropoxy)phenyl)-N-ethyl-4,6dimethyl-2-pymidinamine], the Ki was less than 500 nM.

For `CCN(c1nc(C)cc(COc2ccc(OC)cc2)n1)c1ccc(C(C)C)cc1Br` [compound 208], the inhibition constant (Ki) is less than 500 nM.

Turning to `C=CCOC1CCN(c2cc(C)nc(N(CC)c3ccc(C(C)C)cc3Br)n2)CC1` [compound 37], the Ki is less than 500 nM.

As to `CCN(c1nc(C)cc(NN)n1)c1ccc(C(C)C)cc1Br` [compound 146], the Ki was in the range of 2000 to 10000 nM.

Turning to `CCN(c1nc(C)cc(COc2cc(OC)c(OC)c(OC)c2)n1)c1ccc(C(C)C)cc1Br` [compound 214], the Ki fell in the range of 501 to 2000 nM.

For `CCN(c1nc(C)cc(C)n1)c1ccc(C2CCCCC2)cc1Br` [compound 22], the Ki fell in the range of 501 to 2000 nM.

In the case of `CCN(c1nc(C)cc(Cl)n1)c1ccc(C(C)C)cc1Br` [compound 154], the Ki is less than 500 nM.

As for `CCCCc1ccc(N(CC)c2nc(CC)cc(CC)n2)c(Br)c1` [compound 24], the Ki was 501 to 2000 nM.

`CCN(c1nc(C)cc(C)n1)c1c(OC)cc(C)cc1OC` [compound 51]: the Ki lay within 501 to 2000 nM.

`CCN(c1nc(C)cc(-c2cccs2)n1)c1ccc(C(C)C)cc1Br` [compound 31, N-(2-Bromo-4-(1-methylethyl)phenyl)-N-ethyl-6-methyl-4-(2-thienyl)-2-pyrimidinamine]: the inhibition constant (Ki) is less than 500 nM.

With `CCN(c1nc(C)cc(CN(C)C)n1)c1ccc(C(C)C)cc1Br` [compound 279], the Ki is less than 500 nM.

On to `Cc1ccc(N(C)c2nc(C)cc(C)n2)c(Br)c1` [compound 1, N-(2-bromo-4-methylphenyl)-N-methyl-4,6-dimethyl-2-pymidinamine], for which the Ki is 501 to 2000 nM.

In the case of `Cc1cc(Cl)nc2c1ccn2-c1ccc(C(C)C)cc1Br` [Example 263], the Ki is less than 500 nM.

Consider `CCN(c1nc(C)cc(COCCOC)n1)c1ccc(C(C)C)cc1Br` [compound 227], for which the Ki was less than 500 nM.

On to `CCN(c1nc(C)cc(NCCN(C)C)n1)c1ccc(C(C)C)cc1Br` [compound 163], for which the Ki lay within 501 to 2000 nM.

Turning to `CCN(c1nc(C)cc(C)n1)c1ccc(OC)cc1Br` [compound 206], the Ki was less than 500 nM.

Turning to `CCN(c1nc(C)cc(S(C)(=O)=O)n1)c1ccc(C(C)C)cc1Br` [compound 159, N-(2-bromo-4-(1-methylethyl)phenyl)-N-ethyl-4-methyl-6-(thiomethyl)-2-pyrimidinamine, dioxide], the Ki was less than 500 nM.

On to `C#CCN(c1nc(C)cc(C)n1)c1ccc(C(C)C)cc1Br` [compound 34, N-(2-Bromo-4-(1-methylethyl)phenyl)-N-propargyl4,6-dimethyl-2-pyrimidinamine], for which the inhibition constant Ki is less than 500 nM.

For the molecule `CCN(CC)c1nc(C)nc(N(CC)c2ccc(C(C)C)cc2Br)n1` [compound 232], the Ki is less than 500 nM.

Consider `CCN(c1nc(C)cc(CN2CCN(c3ccccn3)CC2)n1)c1ccc(C(C)C)cc1Br` [compound 280], for which the Ki was less than 500 nM.

As to `CCN(c1nc(C)cc(C=O)n1)c1ccc(C(C)C)cc1Br` [compound 222, N-(2-Bromo-4-(1-methylethyl)phenyl)-N-ethyl-4-formyl-6-methyl-2-pyrimidinamine], the Ki lay within 501 to 2000 nM.

In the case of `CCN(c1nc(Cl)nc(Cl)n1)c1ccc(C(C)(C)O)cc1I` [compound 249, N-[2-iodo-4-dimethylhydroxymethylphenyl]-N-ethyl-4-6-dichloro-1,3,5 triazin-2-amine], the inhibitory constant (Ki) lay in the range of 2000 to 10000 nM.

As for `CCN(c1nc(C)cc(COc2ccc(-n3ccnc3)cc2)n1)c1ccc(C(C)C)cc1Br` [compound 218], the Ki is less than 500 nM.

`CCN(c1nc(C)nc(N2CCOCC2)n1)c1ccc(C(C)C)cc1Br` [compound 134, N-[2-bromo-4-(1-methylethyl)phenyl]-N-ethyl-4-methyl-6-(4-morpholinyl)-1,3,5-triazin-2-amine]: the Ki is less than 500 nM.

As for `CCN(c1nc(C)cc(OCCCSC)n1)c1ccc(C(C)C)cc1Br` [compound 150], the Ki is less than 500 nM.

Regarding `CCN(c1nc(C)cc(C(=O)NC)n1)c1ccc(C(C)C)cc1Br` [compound 271], the inhibition constant (Ki) was less than 500 nM.
